Laboratory results: the OligoGym collection
These antisense oligonucleotides have a phosphorothioate backbone; sugars and methylation of C are not fully specified.

What was measured:
Conditions in all cases: ASO
[1] = biological target: NCOA2
[2] = biological target: CHEK2
[3] = biological target: RIPK2
[4] = biological target: PRKAR2A
Note: test concentration or dose not given here.

Question: For CTATTAATTTTGTGTTAC, which remaining target (mRNA or protein) (fraction of control) [1] is on record?
Answer: Its remaining target (mRNA or protein) (fraction of control) is at least 1.

Question: Which remaining target (mRNA or protein) (fraction of control) [2] does the source give for AACTTCTTGACAAGGTCCAG here?
Answer: The remaining target (mRNA or protein) (fraction of control) was 0.8.

Question: TTCATGGTCCCGGGCGCTCA was tested. Which remaining target (mRNA or protein) (fraction of control) [3] did it give?
Answer: Its remaining target (mRNA or protein) (fraction of control) is 0.53.

Question: How did the remaining target (mRNA or protein) (fraction of control) [2] turn out when CTTGGGACTGGGTAACGCTG was run?
Answer: Its remaining target (mRNA or protein) (fraction of control) is 0.93.

Question: For CCATTGCCACTGTGATCTTC, which remaining target (mRNA or protein) (fraction of control) [2] is on record?
Answer: Its remaining target (mRNA or protein) (fraction of control) is 0.46.

Question: TAATGAATGGGCCTTCAGAA was tested. Which remaining target (mRNA or protein) (fraction of control) [4] did it give?
Answer: The remaining target (mRNA or protein) (fraction of control) was at least 1.

Question: Which remaining target (mRNA or protein) (fraction of control) [2] does the source give for AGCAGTCCCAACAGAAACAA here?
Answer: Its remaining target (mRNA or protein) (fraction of control) is 0.95.

Question: AGAACTGGTCTTTCCTTC was tested. Which remaining target (mRNA or protein) (fraction of control) [1] did it give?
Answer: Its remaining target (mRNA or protein) (fraction of control) is 0.92.

Question: For GGGAAAAGCTGTGGTAAT, which remaining target (mRNA or protein) (fraction of control) [1] is on record?
Answer: Its remaining target (mRNA or protein) (fraction of control) is 0.79.

Question: Which remaining target (mRNA or protein) (fraction of control) [3] does the source give for GAGCAGCGGAGTGTGGATGT here?
Answer: Its remaining target (mRNA or protein) (fraction of control) is 0.3.

Question: Which remaining target (mRNA or protein) (fraction of control) [4] does the source give for CATGCCGGCGGCGGCCGAAG here?
Answer: Its remaining target (mRNA or protein) (fraction of control) is at least 1.

Question: How did the remaining target (mRNA or protein) (fraction of control) [4] turn out when GGGTGTTGTACATCAGAGCT was run?
Answer: Its remaining target (mRNA or protein) (fraction of control) is 0.87.

Question: CAGCAATATTTCCGTGTT was tested. Which remaining target (mRNA or protein) (fraction of control) [1] did it give?
Answer: Its remaining target (mRNA or protein) (fraction of control) is 0.88.

Question: For GTACTGCACAGCCAAGAGCA, which remaining target (mRNA or protein) (fraction of control) [2] is on record?
Answer: Its remaining target (mRNA or protein) (fraction of control) is 0.79.

Question: With CAGTGTCCCAGAGCTGGAGT as the sequence, how does the remaining target (mRNA or protein) (fraction of control) [2] read?
Answer: Its remaining target (mRNA or protein) (fraction of control) is at least 1.

Question: With CGTGCTGGTAGAGGAGCTGG as the sequence, how does the remaining target (mRNA or protein) (fraction of control) [2] read?
Answer: The remaining target (mRNA or protein) (fraction of control) was 0.77.

Question: ATGGCCTCCCCGTTCATGGT was tested. Which remaining target (mRNA or protein) (fraction of control) [3] did it give?
Answer: Its remaining target (mRNA or protein) (fraction of control) is 0.51.

Question: How did the remaining target (mRNA or protein) (fraction of control) [2] turn out when TTTGTGGTCTCGGCACCCTC was run?
Answer: The remaining target (mRNA or protein) (fraction of control) was 0.77.

Question: With TTACATGCTTTTATTTTGAA as the sequence, how does the remaining target (mRNA or protein) (fraction of control) [3] read?
Answer: The remaining target (mRNA or protein) (fraction of control) was 0.5.

Question: How did the remaining target (mRNA or protein) (fraction of control) [1] turn out when GCTGGGTTGGCCTGAGAC was run?
Answer: The remaining target (mRNA or protein) (fraction of control) was at least 1.

Question: With AAATAACAGTCTTGAGCTTT as the sequence, how does the remaining target (mRNA or protein) (fraction of control) [3] read?
Answer: Its remaining target (mRNA or protein) (fraction of control) is 0.73.

Question: For TGAAATTCATTGTCCAATAA, which remaining target (mRNA or protein) (fraction of control) [3] is on record?
Answer: The remaining target (mRNA or protein) (fraction of control) was 0.99.

Question: Which remaining target (mRNA or protein) (fraction of control) [2] does the source give for GAGAGCTGGGTCTGCCTCTC here?
Answer: Its remaining target (mRNA or protein) (fraction of control) is 0.73.

Question: With CCATGCAGGGCCCCAGAAGC as the sequence, how does the remaining target (mRNA or protein) (fraction of control) [4] read?
Answer: Its remaining target (mRNA or protein) (fraction of control) is 0.52.

Question: For AAGCCTGGGATTTTAGGGCA, which remaining target (mRNA or protein) (fraction of control) [3] is on record?
Answer: The remaining target (mRNA or protein) (fraction of control) was 0.15.

Question: How did the remaining target (mRNA or protein) (fraction of control) [2] turn out when CTCTCGAAAGCCAGCTTTAC was run?
Answer: The remaining target (mRNA or protein) (fraction of control) was 0.31.

Question: How did the remaining target (mRNA or protein) (fraction of control) [2] turn out when AAGGGCCCATAATCGAGCCC was run?
Answer: The remaining target (mRNA or protein) (fraction of control) was 0.78.

Question: Which remaining target (mRNA or protein) (fraction of control) [4] does the source give for AATGCCCATAACCACAGCAA here?
Answer: The remaining target (mRNA or protein) (fraction of control) was 0.39.

Question: How did the remaining target (mRNA or protein) (fraction of control) [1] turn out when GGCCCCAGCGCATCCTTG was run?
Answer: The remaining target (mRNA or protein) (fraction of control) was 0.45.

Question: Which remaining target (mRNA or protein) (fraction of control) [4] does the source give for GGATCTGGATGTGGCTCATG here?
Answer: Its remaining target (mRNA or protein) (fraction of control) is 0.71.

Question: Which remaining target (mRNA or protein) (fraction of control) [1] does the source give for TGCTGTGGGAAAACGGGC here?
Answer: Its remaining target (mRNA or protein) (fraction of control) is 0.43.

Question: Which remaining target (mRNA or protein) (fraction of control) [1] does the source give for AAGCCAACGATGACCCTA here?
Answer: The remaining target (mRNA or protein) (fraction of control) was 0.2.

Question: With ATGCAGCCCTTTGAGAACCA as the sequence, how does the remaining target (mRNA or protein) (fraction of control) [3] read?
Answer: Its remaining target (mRNA or protein) (fraction of control) is 0.18.

Question: With TCAGCAGTGTCAGCAATA as the sequence, how does the remaining target (mRNA or protein) (fraction of control) [1] read?
Answer: Its remaining target (mRNA or protein) (fraction of control) is at least 1.
